One series deals with HepG2 cancer cells. The series can be described thus: Anticancer activity, cell viability by CCK-8, HepG2. It is filed as cell-based. The conditions noted are these: HepG2, 10 μM, 72 hours. A digest of the protocol:
(§1)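 HS746T or HepG2 cells seeded at 4,000 cells/well, left 24 h, then exposed to compounds for 72 h. Viability measured by CCK-8 and expressed as % of untreated control.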

Series [1] has as its target T1, human recombinant LRRK2 protein (Homo sapiens, UniProt Q5S007).
T1 construct: purchased Eurofins
The series can be described thus: LRRK2 kinase activity assay (Eurofins, gamma-33P-ATP, filtermat scintillation counting). It is filed as biochemical. To be noted: human recombinant LRRK2, 40 minutes at room temperature.

The next series deals with HS746T cancer cells. The series can be described thus: Anticancer activity, cell viability by CCK-8, HS746T. To be noted: 72 hours. Type of series: cell-based. A digest of the protocol: as §1
Series [2] has as its target T2, human recombinant MLK3 protein (Homo sapiens, UniProt Q16584).
T2 construct: purchased Eurofins
The series can be described thus: MLK3 kinase activity assay (Eurofins, gamma-33P-ATP, filtermat scintillation counting). Type of series: biochemical. The conditions noted are these: human recombinant MLK3, 120 minutes at room temperature.

Data on 20 molecules can be found in patent US20240270698A2, “NOVEL PYRIMIDINE DERIVATIVE AND USE THEREOF” (KOREA RESEARCH INSTITUTE OF CHEMICAL TECHNOLOGY, priority 2019, published 2024).

Where only a bound is given, the exact number is not on record here.

T2 sequence (Q16584 whole entry): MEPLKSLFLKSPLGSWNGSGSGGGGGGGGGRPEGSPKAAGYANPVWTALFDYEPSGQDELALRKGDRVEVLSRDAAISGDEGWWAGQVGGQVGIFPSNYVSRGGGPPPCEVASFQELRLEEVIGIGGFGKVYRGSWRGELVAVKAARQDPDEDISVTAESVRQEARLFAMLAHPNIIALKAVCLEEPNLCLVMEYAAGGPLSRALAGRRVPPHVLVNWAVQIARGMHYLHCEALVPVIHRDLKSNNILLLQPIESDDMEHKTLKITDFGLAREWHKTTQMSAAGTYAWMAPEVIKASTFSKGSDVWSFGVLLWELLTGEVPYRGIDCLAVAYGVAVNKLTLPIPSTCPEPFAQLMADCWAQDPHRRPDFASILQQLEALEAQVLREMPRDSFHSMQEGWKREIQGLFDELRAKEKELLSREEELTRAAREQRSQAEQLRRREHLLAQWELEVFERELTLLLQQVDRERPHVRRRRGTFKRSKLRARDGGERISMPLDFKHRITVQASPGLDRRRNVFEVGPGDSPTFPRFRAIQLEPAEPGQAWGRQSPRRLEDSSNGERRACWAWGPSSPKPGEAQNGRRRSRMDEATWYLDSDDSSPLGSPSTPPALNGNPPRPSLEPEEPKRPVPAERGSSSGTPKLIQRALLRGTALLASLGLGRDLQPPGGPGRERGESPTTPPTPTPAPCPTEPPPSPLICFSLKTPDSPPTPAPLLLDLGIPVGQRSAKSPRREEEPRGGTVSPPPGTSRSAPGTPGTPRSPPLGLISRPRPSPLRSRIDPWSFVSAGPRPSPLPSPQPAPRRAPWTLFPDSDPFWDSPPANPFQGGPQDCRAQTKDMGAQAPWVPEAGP
T1 sequence (Q5S007 whole entry): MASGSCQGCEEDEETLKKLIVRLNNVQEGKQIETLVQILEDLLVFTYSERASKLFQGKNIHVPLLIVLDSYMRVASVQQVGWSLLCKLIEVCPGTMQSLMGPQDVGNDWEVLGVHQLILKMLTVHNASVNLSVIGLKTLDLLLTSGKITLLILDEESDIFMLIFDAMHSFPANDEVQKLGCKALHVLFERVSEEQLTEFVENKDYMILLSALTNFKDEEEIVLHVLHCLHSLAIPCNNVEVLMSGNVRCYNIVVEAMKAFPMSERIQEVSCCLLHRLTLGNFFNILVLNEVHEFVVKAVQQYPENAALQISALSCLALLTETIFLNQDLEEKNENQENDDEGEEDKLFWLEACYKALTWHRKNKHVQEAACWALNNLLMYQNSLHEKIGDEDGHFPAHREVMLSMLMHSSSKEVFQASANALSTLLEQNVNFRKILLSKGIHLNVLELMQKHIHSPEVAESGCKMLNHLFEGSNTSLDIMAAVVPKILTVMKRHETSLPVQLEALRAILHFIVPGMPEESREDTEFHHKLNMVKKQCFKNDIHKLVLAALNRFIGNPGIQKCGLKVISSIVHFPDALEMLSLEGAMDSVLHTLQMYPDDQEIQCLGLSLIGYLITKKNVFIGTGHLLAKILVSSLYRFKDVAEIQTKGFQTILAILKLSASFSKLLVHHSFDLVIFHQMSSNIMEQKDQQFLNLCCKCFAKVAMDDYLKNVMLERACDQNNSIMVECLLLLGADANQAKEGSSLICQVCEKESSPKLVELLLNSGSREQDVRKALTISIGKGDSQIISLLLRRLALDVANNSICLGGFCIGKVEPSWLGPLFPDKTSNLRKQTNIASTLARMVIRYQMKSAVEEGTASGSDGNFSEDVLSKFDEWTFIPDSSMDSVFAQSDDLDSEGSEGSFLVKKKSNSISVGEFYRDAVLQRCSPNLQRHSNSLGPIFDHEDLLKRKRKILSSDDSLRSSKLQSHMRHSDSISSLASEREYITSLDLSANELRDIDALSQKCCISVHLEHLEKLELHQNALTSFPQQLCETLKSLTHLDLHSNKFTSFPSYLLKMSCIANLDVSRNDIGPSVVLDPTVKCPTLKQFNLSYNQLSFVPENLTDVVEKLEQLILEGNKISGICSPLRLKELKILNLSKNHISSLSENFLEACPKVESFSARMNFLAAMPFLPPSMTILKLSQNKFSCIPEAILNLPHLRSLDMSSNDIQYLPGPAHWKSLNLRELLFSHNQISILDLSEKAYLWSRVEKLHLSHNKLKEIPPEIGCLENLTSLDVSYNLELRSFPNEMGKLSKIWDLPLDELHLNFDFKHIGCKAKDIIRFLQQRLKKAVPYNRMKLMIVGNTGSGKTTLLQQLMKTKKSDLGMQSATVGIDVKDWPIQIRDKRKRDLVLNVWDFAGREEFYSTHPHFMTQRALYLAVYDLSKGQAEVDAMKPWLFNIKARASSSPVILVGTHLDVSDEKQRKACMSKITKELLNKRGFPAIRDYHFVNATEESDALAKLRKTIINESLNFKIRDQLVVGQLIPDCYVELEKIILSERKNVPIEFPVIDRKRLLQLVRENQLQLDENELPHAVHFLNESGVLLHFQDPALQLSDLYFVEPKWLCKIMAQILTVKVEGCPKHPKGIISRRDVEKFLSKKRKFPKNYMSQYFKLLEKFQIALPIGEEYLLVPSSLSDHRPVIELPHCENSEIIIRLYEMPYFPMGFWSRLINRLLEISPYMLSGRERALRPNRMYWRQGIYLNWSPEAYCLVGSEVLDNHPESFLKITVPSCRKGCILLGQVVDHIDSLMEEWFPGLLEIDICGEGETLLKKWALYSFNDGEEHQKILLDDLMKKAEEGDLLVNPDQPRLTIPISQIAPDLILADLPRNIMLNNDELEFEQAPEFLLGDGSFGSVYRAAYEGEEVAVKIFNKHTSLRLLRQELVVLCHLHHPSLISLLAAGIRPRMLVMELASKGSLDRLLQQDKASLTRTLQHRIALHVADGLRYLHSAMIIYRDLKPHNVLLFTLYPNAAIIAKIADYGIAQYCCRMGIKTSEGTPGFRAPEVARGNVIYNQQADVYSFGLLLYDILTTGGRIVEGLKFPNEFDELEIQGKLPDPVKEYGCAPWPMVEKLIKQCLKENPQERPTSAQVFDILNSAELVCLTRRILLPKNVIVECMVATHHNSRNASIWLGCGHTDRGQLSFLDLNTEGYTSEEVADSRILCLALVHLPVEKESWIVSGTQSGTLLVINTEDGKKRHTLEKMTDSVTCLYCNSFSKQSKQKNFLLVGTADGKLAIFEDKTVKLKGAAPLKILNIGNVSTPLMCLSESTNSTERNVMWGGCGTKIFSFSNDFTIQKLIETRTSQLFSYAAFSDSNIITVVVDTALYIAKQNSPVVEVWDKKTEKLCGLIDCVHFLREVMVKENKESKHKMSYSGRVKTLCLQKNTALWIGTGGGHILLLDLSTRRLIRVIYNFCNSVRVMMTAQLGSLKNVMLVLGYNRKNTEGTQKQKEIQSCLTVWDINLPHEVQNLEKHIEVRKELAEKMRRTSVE

As usually defined, the IC50 is the midpoint of a concentration-inhibition curve. Consider `Cn1cc(-c2n[nH]c3ccc(Nc4ncc(Cl)c(Nc5ccccc5P(C)(C)=O)n4)cc23)cn1` [compound 94, (2-((5-Chloro-2-((3-(1-methyl-1H-pyrazol-4-yl)-1H-indazol-5-yl)amino)pyrimidin-4-yl)amino)phenyl)dimethylphosphine oxide], for which the “Cell viability (% of Con. 10 μM) HepG2” value in the series with HepG2 cancer cells is reported as 30 % of Con. Besides, the IC50 in series [1] and in series [2] was 1 to 10 nM each time. In addition, the “Cell viability (% of Con. 10 μM) HS746T” value in the series on HS746T cancer cells is recorded as 15 % of Con.
`CC1(C)NCCc2ccc(Nc3ncc(Cl)c(Nc4ccccc4P(C)(C)=O)n3)cc21` [compound 44, (2-((5-Chloro-2-((1,1-dimethyl-1,2,3,4-tetrahydroisoquinolin-7-yl)amino)pyrimidin-4-yl)amino)phenyl)dimethylphosphine oxide]: the “Cell viability (% of Con. 10 μM) HepG2” value in the series with HepG2 cancer cells is 53 % of Con. Besides, the IC50 in series [1] and in series [2] was 1 to 10 nM each time. Moreover, the “Cell viability (% of Con. 10 μM) HS746T” value in the series on HS746T cancer cells is recorded as 17 % of Con.
In the case of `Cc1nc2ccc(Nc3ncc(Cl)c(Nc4ccccc4P(C)(C)=O)n3)cc2s1` [compound 17, (2-((5-Chloro-2-((2-methylbenzo[d]thiazol-6-yl)amino)pyrimidin-4-yl)amino)phenyl)dimethylphosphine oxide], in the series with HepG2 cancer cells, the “Cell viability (% of Con. 10 μM) HepG2” value is on record as 35 % of Con. Moreover, the half-maximal inhibitory concentration (IC50) in series [1] and in series [2] was 1 to 10 nM throughout. The “Cell viability (% of Con. 10 μM) HS746T” value with HS746T cancer cells is 17 % of Con.
Take `COc1cc2c(cc1Nc1ncc(Cl)c(Nc3ccccc3P(C)(C)=O)n1)CN(C(=O)C(F)(F)F)CC2` [compound 62, 1-(7-((5-chloro-4-((2-(dimethylphosphoryl)phenyl)amino)pyrimidin-2-yl)amino)-6-methoxy-3,4-dihydroisoquinolin-2(1H)-yl)-2,2,2-trifluoroethan-1-one]: the “Cell viability (% of Con. 10 μM) HepG2” value in the series on HepG2 cancer cells is recorded as 26 % of Con. For the same molecule, the IC50 in series [1] and in series [2] was 1 to 10 nM throughout. Also, in the series on HS746T cancer cells, the “Cell viability (% of Con. 10 μM) HS746T” value is listed as 13 % of Con.
In the case of `CP(C)(=O)c1ccccc1Nc1nc(Nc2ccc3[nH]ccc3c2)ncc1Cl` [compound 65, (2-((2-((1H-Indol-5-yl)amino)-5-chloropyrimidin-4-yl)amino)phenyl)dimethylphosphine oxide], the “Cell viability (% of Con. 10 μM) HepG2” value in the series on HepG2 cancer cells is reported as 20 % of Con. Besides, the IC50 in series [1] and in series [2] was 1 to 10 nM each time. For the same molecule, the “Cell viability (% of Con. 10 μM) HS746T” value in the series with HS746T cancer cells is given as 23 % of Con.
As to `CP(C)(=O)c1ccccc1Nc1nc(Nc2cccc3cc[nH]c23)ncc1Cl` [compound 71, (2-((2-((1H-Indol-7-yl)amino)-5-chloropyrimidin-4-yl)amino)phenyl)dimethylphosphine oxide], the “Cell viability (% of Con. 10 μM) HepG2” value in the series with HepG2 cancer cells is 63 % of Con. The values for the IC50 in series [1] and in series [2] were 1 to 10 nM and 10 to 100 nM, respectively. In the series with HS746T cancer cells, the “Cell viability (% of Con. 10 μM) HS746T” value is on record as 83 % of Con.
The like results for `CC(C)n1cc(-c2n[nH]c3ccc(Nc4ncc(Cl)c(Nc5ccccc5P(C)(C)=O)n4)cc23)cn1` [compound 93, (2-((5-Chloro-2-((3-(1-isopropyl-1H-pyrazol-4-yl)-1H-indazol-5-yl)amino)pyrimidin-4-yl)amino)phenyl)dimethylphosphine oxide] were, in that order, 42 % of Con, 1 to 10 nM, 1 to 10 nM and 18 % of Con.
Take `CC(C)C1c2cc(Nc3ncc(F)c(NC4CCN(S(C)(=O)=O)CC4)n3)ccc2CCN1C(=O)C(F)(F)F` (centres unmarked) [compound 58, 2,2,2-Trifluoro-1-(7-((5-fluoro-4-((1-(methylsulfonyl)piperidin-4-yl)amino)pyrimidin-2-yl)amino)-1-isopropyl-3,4-dihydroisoquinolin-2(1H)-yl)ethan-1-one]: the “Cell viability (% of Con. 10 μM) HepG2” value in the series with HepG2 cancer cells is 83 % of Con. Also, the IC50 in series [1] was 100 to 1000 nM; in series [2], more than 1000 nM. For the same molecule, the “Cell viability (% of Con. 10 μM) HS746T” value with HS746T cancer cells is 85 % of Con.
On to `CC(C)C1NCCc2ccc(Nc3ncc(Cl)c(Nc4ccccc4P(C)(C)=O)n3)cc21` (centres unmarked) [compound 55, (2-((5-Chloro-2-((1-isopropyl-1,2,3,4-tetrahydroisoquinolin-7-yl)amino)pyrimidin-4-yl)amino)phenyl)dimethylphosphine oxide], for which the “Cell viability (% of Con. 10 μM) HepG2” value in the series on HepG2 cancer cells is given as 19 % of Con. The IC50 in series [1] and in series [2] was 1 to 10 nM each time. Also, the “Cell viability (% of Con. 10 μM) HS746T” value in the series with HS746T cancer cells was 2 % of Con.
As to `CP(C)(=O)c1ccccc1Nc1nc(Nc2ccc3ncccc3c2)ncc1Cl` [compound 18, (2-((5-Chloro-2-(quinolin-6-ylamino)pyrimidin-4-yl)amino)phenyl) dimethylphosphine oxide], the “Cell viability (% of Con. 10 μM) HepG2” value with HepG2 cancer cells is 32 % of Con. The IC50 in series [1] is 1 to 10 nM; in series [2], 10 to 100 nM. In the series with HS746T cancer cells, the “Cell viability (% of Con. 10 μM) HS746T” value is 16 % of Con.
With `CP(C)(=O)c1ccccc1Nc1nc(Nc2ccc3cn[nH]c3c2)ncc1Cl` [compound 64, (2-((2-((1H-Indazol-6-yl)amino)-5-chloropyrimidin-4-yl)amino)phenyl)dimethylphosphine oxide], the “Cell viability (% of Con. 10 μM) HepG2” value in the series on HepG2 cancer cells was 23 % of Con. Besides, the IC50 in series [1] and in series [2] was 1 to 10 nM in each case. Moreover, in the series with HS746T cancer cells, the “Cell viability (% of Con. 10 μM) HS746T” value is reported as 29 % of Con.
For the molecule `CP(C)(=O)c1ccccc1Nc1nc(Nc2ccc3[nH]c(C(F)(F)F)nc3c2)ncc1Cl` [compound 75, (2-((5-Chloro-2-((2-(trifluoromethyl)-1H-benzo[d]imidazol-5-yl)amino)pyrimidin-4-yl)amino)phenyl)dimethylphosphine oxide], the “Cell viability (% of Con. 10 μM) HepG2” value in the series with HepG2 cancer cells is recorded as 28 % of Con. The 50% inhibitory concentration (IC50) was in the range of 1 to 10 nM in series [1] and 10 to 100 nM in series [2]. Besides, the “Cell viability (% of Con. 10 μM) HS746T” value in the series with HS746T cancer cells was 21 % of Con.
The corresponding values for `CP(C)(=O)c1ccccc1Nc1nc(Nc2ccc3c(c2)CNC3)ncc1Cl` [compound 73, (2-((5-Chloro-2-(isoindolin-5-ylamino)pyrimidin-4-yl)amino)phenyl)dimethylphosphine oxide] are 19 % of Con, 1 to 10 nM, 1 to 10 nM and 0.5 % of Con.
Turning to `CC1c2cc(Nc3ncc(Cl)c(Nc4ccccc4P(C)(C)=O)n3)ccc2CCN1C(=O)C(F)(F)F` (centres unmarked) [compound 54, 1-(7-((5-Chloro-4-((2-(dimethylphosphoryl)phenyl)amino)pyrimidin-2-yl)amino)-1-methyl-3,4-dihydroisoquinolin-2(1H)-yl)-2,2,2-trifluoroethan-1-one], in the series on HepG2 cancer cells, the “Cell viability (% of Con. 10 μM) HepG2” value is reported as 17 % of Con. Also, the IC50 in series [1] and in series [2] was 1 to 10 nM in each case. Also, the “Cell viability (% of Con. 10 μM) HS746T” value in the series with HS746T cancer cells is 4 % of Con.
For `CP(C)(=O)c1ccccc1Nc1nc(N2CCc3c(N)cccc3C2)ncc1Cl` [compound 9, (2-((2-(5-Amino-3,4-dihydroisoquinolin-2(1H)-yl)-5-chloropyrimidin-4-yl)amino)phenyl)dimethylphosphine oxide], the “Cell viability (% of Con. 10 μM) HepG2” value in the series with HepG2 cancer cells was 110 % of Con. The 50% inhibitory concentration (IC50) in series [1] and in series [2] was more than 1000 nM throughout. Also, the “Cell viability (% of Con. 10 μM) HS746T” value in the series with HS746T cancer cells is given as 104 % of Con.
On to `CP(C)(=O)c1ccccc1Nc1nc(Nc2ccc3[nH]nc(-c4ccc(F)c(Cl)c4)c3c2)ncc1Cl` [compound 107, (2-((5-Chloro-2-((3-(3-chloro-4-fluorophenyl)-1H-indazol-5-yl)amino)pyrimidin-4-yl)amino)phenyl)dimethylphosphine oxide], for which, in the series on HepG2 cancer cells, the “Cell viability (% of Con. 10 μM) HepG2” value was 63 % of Con. The 50% inhibitory concentration (IC50) in series [1] and in series [2] was 1 to 10 nM each time. The “Cell viability (% of Con. 10 μM) HS746T” value with HS746T cancer cells was 11 % of Con.
As to `CN(C)c1ncc(F)c(NC2CCN(S(C)(=O)=O)CC2)n1` [compound 37, 5-Fluoro-N^2,N^2-dimethyl-N^4-(1-(methylsulfonyl)piperidin-4-yl) pyrimidine-2,4-diamine], in the series with HepG2 cancer cells, the “Cell viability (% of Con. 10 μM) HepG2” value is reported as 100 % of Con. The half-maximal inhibitory concentration (IC50) in series [1] and in series [2] was more than 1000 nM in each case. In the series on HS746T cancer cells, the “Cell viability (% of Con. 10 μM) HS746T” value is given as 90 % of Con.
On to `CC(C)C1c2cc(Nc3ncc(Cl)c(Nc4ccccc4P(C)(C)=O)n3)ccc2CCN1C(=O)C(F)(F)F` (centres unmarked) [compound 53, 1-(7-((5-Chloro-4-((2-(dimethylphosphoryl)phenyl)amino)pyrimidin-2-yl)amino)-1-isopropyl-3,4-dihydroisoquinolin-2(1H)-yl)-2,2,2-trifluoroethan-1-one], for which the “Cell viability (% of Con. 10 μM) HepG2” value in the series with HepG2 cancer cells is reported as 23 % of Con. The IC50 in series [1] and in series [2] was 1 to 10 nM in each case. The “Cell viability (% of Con. 10 μM) HS746T” value with HS746T cancer cells is reported as 14 % of Con.
Take `CP(C)(=O)c1ccccc1Nc1nc(Nc2ccc3[nH]nc(-c4cccc([N+](=O)[O-])c4)c3c2)ncc1Cl` [compound 97, (2-((5-Chloro-2-((3-(3-nitrophenyl)-1H-indazol-5-yl)amino)pyrimidin-4-yl)amino)phenyl)dimethylphosphine oxide]: the “Cell viability (% of Con. 10 μM) HepG2” value with HepG2 cancer cells is recorded as 21 % of Con. The IC50 in series [1] and in series [2] was 1 to 10 nM each time. Also, the “Cell viability (% of Con. 10 μM) HS746T” value in the series on HS746T cancer cells is 11 % of Con.
Consider `CP(C)(=O)c1ccccc1Nc1nc(NC2CCCCC2)ncc1Cl` [compound 16, (2-((5-Chloro-2-(cyclohexylamino)pyrimidin-4-yl)amino)phenyl) dimethylphosphine oxide], for which the “Cell viability (% of Con. 10 μM) HepG2” value in the series on HepG2 cancer cells is reported as 82 % of Con. Also, the IC50 in series [1] and in series [2] was more than 1000 nM each time. In addition, in the series on HS746T cancer cells, the “Cell viability (% of Con. 10 μM) HS746T” value is reported as 64 % of Con.
